# Source: US20240229098A1, “BIOLUMINOGENIC ASSAY FOR DRUG-RESISTANCE BACTERIA DETECTION” (priority 2021, published 2024)
# Legend:
# [1] = Stability of probe incubated with E. coli or PBS; conditions: incubated with Escherichia coli or PBS
# S. marcescens (SME) = assay: Clinical isolate spiked in synthetic urine, filtered and centrifuged, S. marcescens (SME); type: cell-based; conditions: 10 μM D-Bluco, an hour at 37° C., PBS pH 7.4
# Method: FIGS. 11A-11C illustrate detection of clinical isolates spiked in urine with D-Bluco a) Workflow for clinical sample detection b) Bioluminescent response for different concentrations of S. marcescens (SME) or c) E. coli/OXA-48 spiked into synthetic urine samples following the incubation with D-Bluco (10 μM) at 37° C. for an hour. Bioluminescent signal was measured and compared to that of E. coli (10^6 c.f.u/mL).
# Urinary tract infection (UTI) is a severe public health problem because of the high recurrence rates and increasing antimicrobial resistance. It is among the major cause of patient morbidity and health care expenditures for both men and women of all age groups, accounting for 1 million cases of nosocomial in USA annually and an estimate cost of 1.6 billion. As a proof-of-concept, we spiked different concentrations of clinic isolates into synthetic urine samples. E. coli expressing OXA-48 and S. marcescens (SME) were chosen as examples. S. marcescens, being an opportunistic pathogen, accounts for an average of 6.5% of all Gram negative infection in intensive Care Units. The spiked urine samples were filtered and centrifuged to collect the bacteria (FIG. 11A). The collected bacteria were then diluted in PBS (pH=7.4) and incubated with 10 μM D-Bluco for an hour at 37° C.
# E. coli/NDM lysate = assay: Bioluminescence with bacterial lysate compared to intact bacteria, E. coli/NDM; conditions: CHAPS lysis
# Method: (§1) To evaluate whether releasing β-lactamases from periplasm could improve detection sensitivity, the bacteria were lysed.
# (§2) Two clinically significant isolates K. pneumoniae expressing KPC carbapenemase (K. pneumoniae/KPC) and E. coli expressing New Delhi metallo β-lactamase (E. coli/NDM) were evaluated.
# (§3) Bacteria was mixed with 0.5% CHAPS lysis buffer for 15 min, and then incubated with D-Bluco at room temperature for another 15 min. The resulted mixture was combined with assay buffer which contains MgCl2, CoA, ATP, and luciferase for immediate bioluminescent reading.
# K. pneumoniae/KPC = assay: RAPID BLI test, clinic isolate spiked into synthetic urine, K. pneumoniae/KPC; conditions: K. pneumoniae/KPC in synthetic urine, D-Bluco 10 μM
# Method: The modified rapid BLI protocol is applied. The signal of D-Bluco in PBS was subtracted before plotting. The working concentration of D-Bluco was 10 μM. All the studies were duplicated at room temperature in PBS (pH=7.4). Statistical significance was calculated using the unpaired two-tailed Student's t test (** p<0.0021, *** p<0.0002, **** p<0.0001, for comparison with 10^5 cfu/mL E. coli) (** p<0.0021, **** p<0.0001, ns: not significant). RLU indicates relative light units. Dotted line represents 3SD of the negative control.
# as §3
# Clinic isolates representing different classes (class A: Enterobacter cloacae/IMI, E. coli/TEM, K. pneumoniae/KPC; class B: E. coli/NDM, and class C: E. cloacae/AmpC) were spiked into synthetic urine samples.
# [2] = system: KPC-3, BlaC, TEM-1, IMP-1, AmpC, OXA-48; assay: Bioluminescence with panel of recombinant β-lactamases of clinical relevance; type: biochemical
# Method: FIGS. 9A and 9B illustrates bioluminescent studies of D-Bluco and O-Bluco treating with various β-lactamases. 10 μM of Bluco, D-Bluco and O-Bluco incubated with 20 nM TEM-1 for 15 min in PBS at r.t. The bioluminescent signals for each compound was evaluated with or without the addition of TEM-1 by a luminator. […] The relative bioluminescent was calculated by removing background signal in PBS.
# Having confirmed the quenching ability of dabcyl to lower D-Bluco bioluminescent background emission, the activity of D-Bluco towards a variety of β-lactamases that are of clinical relevance in addition to TEM-1, including KPC-3, BlaC (Class A), AmpC (Class C), and OXA-48 (Class D) was then assessed. These enzymes were recombinantly expressed and purified. The bioluminescent signal was measured with an IVIS optical imaging system after treating D-Bluco with each enzyme for 2 hours at room temperature.
# D-Bluco and O-Bluco were evaluated with various β-lactamase that of clinical relevance (FIG. 9B and 9C), including KPC-3, BlaC, TEM-1 (Class A), IMP-1 (Class B), AmpC (Class C), and OXA-48 (Class D). These enzymes were recombinantly expressed, purified as previously described^25. The bioluminescent signal was measured after incubating O-Bluco or D-Bluco with each enzyme at different concentrations for 2 hr at r.t. […] This compares favorably to previously reported fluorescent cephalosporin probe with a 1000-fold sensitivity improvement.^26
# The caged luciferin probes were incubated with different concentrations of TEM-1 β-lactamase or IMP-1 carbapenemase (0.001-0.1 fmol) in PBS (pH=7.4) for 2 hr at 25° C. Then a mixture of luciferase (200 nM), ATP (2 mM), and MgCl2 (4 mM) was added, and bioluminescent signals were detected with a SpectraMax microplate reader or a luminator.
# TEM-1 = TEM-1 (Escherichia coli, UniProt P62593); assay: Fluorescence turn-on of caged luciferin probes with recombinant TEM-1 bla; type: biochemical; design: made in house
# Chain of TEM-1 (P62593 24-286 limits assumed): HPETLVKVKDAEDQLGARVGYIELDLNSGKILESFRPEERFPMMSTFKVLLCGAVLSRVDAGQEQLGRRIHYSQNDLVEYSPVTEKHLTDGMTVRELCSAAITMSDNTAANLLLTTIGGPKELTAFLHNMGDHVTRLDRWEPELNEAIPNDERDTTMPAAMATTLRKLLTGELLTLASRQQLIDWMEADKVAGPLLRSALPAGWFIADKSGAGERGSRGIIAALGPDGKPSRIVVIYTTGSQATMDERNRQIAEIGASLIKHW
# Method: D-Bluco was evaluated as to whether it could be processed by β-lactamase to release luciferin with one of the most prevalent Ambler class A β-lactamases, TEM-1.
# Both probes were evaluated to with TEM-1 bla, one of the most abundant β-Lactamases for initial testing. The fluorescent signal of D-Bluco and O-Bluco incubated with 100 nM TEM-1 bla was examined with a microplate reader over a period of 40 minutes.
# General information: All chemicals were purchased from commercial sources and used without further purification. […] QuantiLum Recombinant luciferase (catalog number E1701) was purchased from Promega (Madison, WI). Reaction progress was monitored by analytical thin layer chromatography (TLC) with 0.25 mm silica gel 60F plates and visualized with fluorescent indicator (254 nm). Flash column chromatography was conducted using silica gel (SiliaFlash for flash column, 40-63 μm, 60 Å). The ^1H and ^13C NMR spectra were acquired on a Varian 500 MHz or 600 MHz magnetic resonance spectrometer. Data for ^1H NMR spectra are reported as follows: chemical shifts are reported as δ in units of parts per million (ppm) relative to chloroform-d (δ 7.26, s); multiplicities are reported as follows: s (singlet), d (doublet), t (triplet), q (quartet), dd (doublet of doublets), m (multiplet), or br (broadened); coupling constants are reported as a J value in Hertz (Hz); and the number of protons (n) for a given resonance is indicated nH and based on the spectral integration values. High resolution mass spectra were obtained on a Thermo Exactive Orbitrap LC/MS. HPLC was performed on a Dionex HPLC System (Dionex Corporation) equipped with a GP50 gradient pump and an inline diode array UV-Vis detector. A reversed-phase C18 (Phenomenax, 5 μm, 10×250 mm or Dionex, 5 μm, 4.6×250 mm) column was used with a MeCN (B)/H2O (A) gradient mobile phase containing 0.1% trifluoroacetic acid at a flow of 1 or 3 mL/min for the analysis. Fluorescence Spectra and kinetic experiments were collected by a SpectraMax iD3 multimode microplate reader (Molecular Device, San Jose, CA).
# BlaC = molecular target: T1, BlaC (Mycobacterium tuberculosis, UniProt P9WKD3); assay: Limit of detection of recombinant β-lactamase by bioluminescence (BlaC); type: biochemical; conditions: 2 hours, room temperature; 3 SD of negative control
# T1 construct: made in house
# T1 sequence (P9WKD3 35-307): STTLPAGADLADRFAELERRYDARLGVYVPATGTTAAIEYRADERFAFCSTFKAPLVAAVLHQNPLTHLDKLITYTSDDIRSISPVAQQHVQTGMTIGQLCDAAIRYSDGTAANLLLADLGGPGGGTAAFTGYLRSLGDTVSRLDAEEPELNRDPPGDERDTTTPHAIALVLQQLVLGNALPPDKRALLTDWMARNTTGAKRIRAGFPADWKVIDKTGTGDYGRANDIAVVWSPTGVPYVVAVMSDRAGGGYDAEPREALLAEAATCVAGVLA
# OXA-48 = molecular target: T2, OXA-48 (Klebsiella pneumoniae, UniProt Q6XEC0); assay: Limit of detection of recombinant β-lactamase by bioluminescence (OXA-48); type: biochemical
# T2 construct: made in house
# T2 sequence (Q6XEC0 23-265 limits assumed): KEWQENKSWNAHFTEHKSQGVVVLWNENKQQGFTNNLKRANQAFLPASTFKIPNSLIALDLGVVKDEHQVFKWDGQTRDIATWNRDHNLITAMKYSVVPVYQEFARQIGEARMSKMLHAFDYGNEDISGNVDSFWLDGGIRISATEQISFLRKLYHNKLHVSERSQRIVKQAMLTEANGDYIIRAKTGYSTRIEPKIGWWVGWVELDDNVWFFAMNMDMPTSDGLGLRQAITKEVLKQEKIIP
# K. pneumoniae/KPC lysate = assay: Bioluminescence with bacterial lysate compared to intact bacteria, K. pneumoniae/KPC; conditions: CHAPS lysis
# Method: as §1, §2, §3
smiles,measurement,setting,value
"CN(C)c1ccc(/N=N/c2ccc(C(=O)NCCCCCC(=O)NC3C(=O)N4C(C(=O)O)=C(COc5ccc6nc(C7=N[C@@H](C(=O)O)CS7)sc6c5)C[S+]([O-])C34)cc2)cc1 (stereo partly drawn) [D-Bluco, 3-(((2-((S)-4-carboxy-4,5-dihydrothiazol-2-yl)benzo[d]thiazol-6-yl)oxy)methyl)-7-(6-(4-((E)-(4-(dimethylamino)phenyl)diazenyl)benzamido)hexanamido)-8-oxo-5-thia-1-azabicyclo[4.2.0]oct-2-ene-2-carboxylic acid 5-oxide]",stability when incubated with E. coli or PBS,[1],highly stable
same,concentration from which significant bioluminescence enhancement is seen,S. marcescens (SME),10^4 c.f.u/mL
same,signal enhancement with lysate compared to intact bacteria,E. coli/NDM lysate,145 fold
same,concentration detected directly without culture,K. pneumoniae/KPC,10^3 cfu/mL
same,lowest detectable β-lactamase activity,[2],10-18 moles
same,detection limits for the panel of enzymes,"[2]; KPC-3, BlaC, TEM-1, IMP-1, AmpC, OXA-48, 2 hr at r.t.",within the femtomole range
same,"bioluminescence triggered by β-lactamases TEM-1, KPC-3, BlaC, AmpC, OXA-48","[2]; each enzyme 2 hours at room temperature, IVIS imaging",significant bioluminescence
same,fold increase in fluorescence emission in the presence of TEM-1,"TEM-1; 1 μM probe, TEM-1 100 nM, 40 min, PBS pH 7.4, r.t., excitation 330 nm, emission 530 nm",37.6 fold
same,time of rapid fluorescence intensity increase before plateau,"TEM-1; TEM-1 bla 100 nM, monitored over 40 minutes",≤ 10 min
same,fluorescence emission in the absence of TEM-1,"TEM-1; without TEM-1, excitation 330 nm, emission 530 nm",little emission
same,limit of detection (LOD) of BlaC (all other β-lactamases),BlaC,0.001 femtomole
same,efficiency of OXA-48 in hydrolyzing the probe,OXA-48,low efficiency
same,limit of detection (LOD) of OXA-48,"OXA-48; 2 hours, room temperature, 3 SD of negative control (D-Bluco in PBS)",0.1 femtomole
same,signal enhancement with lysate compared to intact bacteria,K. pneumoniae/KPC lysate,141 fold
